Laboratory results as given in patent US20130053435A1, “Methods of Treating Alcohol Intoxication, Alcohol Use Disorders and Alcohol Abuse Which Comprises the Administration of Dihydromyricetin” (priority 2011, published 2013).
Read-outs that look alike come from different tables or passages of the source. Each block holds one molecule with its values, some of them ahead of it.

Legend:
[1] = tested on: benzodiazepine site of GABAARs; experiment: [3H]flunitrazepam binding in rat cortical membrane homogenates; conditions: comparative experiments
Experimental: Standard procedures for preparation of rat cortical membranes for radioligand binding assays were conducted as previously described with modifications in speed and number of centrifugation and washes, and buffer compositions. […] Naïve rat cortex was dissected from brain and homogenized in 0.32 M sucrose, 10 mM HEPES buffer (pH 7.4), and centrifuged at 650×g, 4° C. The subsequent supernatant was centrifuged at 150,000×g to collect the desired membrane-containing pellet. The pellet was washed and centrifuged two more times, first using ice-cold water and second using membrane buffer containing 50 mM KH2PO4, 1 mM EDTA, 2 mM benzamidine HCl, 0.5 mM DTT, 0.1 mM benzethonium HCl, 0.01% bacitracin, 0.2 PMSF (pH 7.4), and the resulting pellet was frozen. On the day of binding assay, the pellet was homogenized in assay buffer containing 50 mM KH2PO4, 1 mM EDTA, 200 mM KCl (pH 7.4) and centrifuged, and resuspended in fresh assay buffer to a final protein concentration of 1 mg/ml. […] Specific binding was defined as the total amount bound (zero unlabeled ligand) minus the binding in the presence of 10 μM final concentration flurazepam (Sigma). Data was analyzed with GraphPad Prism 4.0 Software (San Diego, Calif.) to determine IC50 (One-site competition equation) and Hill slope (Sigmoidal Dose-Response equation). Experiments were conducted in triplicate.

[2] = tested on: T1, GABAARs; experiment: Whole-cell patch-clamp, DGCs in hippocampal slices, acute drug application; format: cell-based, rat; conditions: comparative experiments, rat hippocampal slices
T1 construct: DHM-enhanced Itonic; EC50 on GABAAR-mediated Itonic; other: control (vehicle) cultured neurons, DIV14; other: cultured neurons with EtOH exposure/withdrawal (60 mM, 30 min, 24 hr); EtOH-potentiated Itonic; GABAAR-mediated Ito
Experimental: (§1) Transverse slices (400 μm) of dorsal hippocampus were obtained with a Vibratome (VT 100, Technical Products International, St. Louis, Mo.) and standard techniques known in the art. Slices were continuously perfused with artificial cerebrospinal fluid (ACSF).
(§2) Signals were recorded in voltage-clamp mode with a […] amplifier (Molecular Devices, Sunnyvale, Calif.). Whole cell access resistances were in the range of <25 MΩ before electrical compensation by about 70%. During voltage-clamp recordings, access resistance was monitored by measuring the size of the capacitative transient in response to a 5 mV step command and the data were abandoned if changes >20% were encountered. At least 10 min was allowed for equilibration of the pipette solution with the intracellular milieu before commencing mIPSC recordings.
(§3) Data were analyzed using the Clampfit (Version 9.0, Molecular Devices) and the MiniAnalysis Program (versions 6.0.7, Synaptosoft, Decatur, Ga.).
(§4) The MiniAnalysis program (Synaptosoft, Decatur, Ga.) was used to analyze mIPSCs. Itonic is the averaged baseline currents of a given recording period. Itonic amplitude was calculated as the difference between the holding currents measured before and after picrotoxin (100 μM) or bicuculline (10 μM). […] Briefly, the recordings were low-pass filtered off-line (Clampfit software) at 2 kHz. The mIPSCs were detected (Mini Analysis Program, version 6.0.7) with threshold criteria of 8 pA amplitude and 20 pA*ms charge transfer. The frequency of mIPSCs was determined from all automatically detected events in a given 100 s recording period. For kinetic analysis, only single event mIPSCs with a stable baseline, sharp rising phase (10 to 90% rise time), and exponential decay were chosen during visual inspection of the recording trace. Double and multiple peak mIPSCs were excluded. At least 100 individual mIPSC events were recorded under each experimental condition. The mIPSC kinetics was obtained from analysis of the averaged chosen single events aligned with half rise time in each cell. Decay time constants were obtained by fitting a double exponential to the falling phase of the averaged mIPSCs. Itonic magnitudes were obtained from the averaged baseline current of a given recording period. Itonic amplitude was calculated as the difference between the holding currents measured before and after the application of picrotoxin (50 μM) or bicuculline (10 μM). […] The investigator performing the recordings and mIPSC analysis was blind to the treatment (vehicle, EtOH, E+D, or D) that the rats received.
(§5) As performed previously, whole-cell patch-clamp recordings in dentate gyms granule cells (DGCs) from hippocampal slices in vitro were conducted.

[3] = tested on: T2, GABAARs; experiment: as above; format: cell-based, rat; conditions: in the presence of 60 mM EtOH, rat hippocampal slices
T2 construct: other: in the presence of 60 mM EtOH, rat hippocampal; shift of the GABA concentration-response curve
Experimental: as §1, §2, §3, §4, §5

[4] = tested on: T3, GABAARs; experiment: as above; format: cell-based, rat; conditions: comparative experiments, rat hippocampal slices
T3 construct: DHM-enhanced mIPSCs; other: control (vehicle) cultured neurons, DIV14; other: cultured neurons with EtOH exposure/withdrawal (60 mM, 30 min, 24 hr); EtOH-potentiated mIPSCs; effect on post-synaptic currents (mIPSCs); other: comparative experiments, rat hippocampal slices
Experimental: as §1, §2, §3, §4, §5

[5] = tested on: EtOH-induced LORR in rats
Experimental: See Kakihana R, et al. (1966) Science 154(756):1574-1575). Briefly, after drug injection, rats were placed in the supine position in a V-shaped support. LORR onset time was taken from the endpoint of drug injection (i.p.). LORR duration ended when the animal was able to flip over three times in 30 s. LORR assays were blindly performed. LORR durations were reported as mean (min)±SEM.
Further LORR assays were conducted as follows.
Additional pre-treatment and post-treatment experiments were also conducted.
See Hunkeler, W., et al. (1981) Nature 290:514-516.

[6] = tested on: T1, GABAARs; experiment: Whole-cell patch-clamp, cultured hippocampal neurons, acute drug application; format: cell-based, rat; conditions: DHM 1 μM + 10 μM flumazenil
Experimental: (§6) Hippocampal neurons from embryonic day 18 rats were prepared by papain dissociation (Worthington Biochemical, Lakewood, N.J.) and cultured in neurobasal medium and B27 supplement (Invitrogen). Cultures were kept at 37° C. in a 5% CO2 humidified incubator as described previously. See Shen, Y., et al. (2011) Mol Pharmacol 79:432-442.
(§7) Hippocampal neurons from embryonic day 18 SD rats were prepared by papain dissociation (Worthington Biochemical, Lakewood, N.J.) and cultured in neurobasal medium (Invitrogen) and B27 supplement as previously reported. See Stowell J N and Craig A M (1999) Neuron 22(3):525-536. Briefly, embryos were removed from maternal rats anesthetized with isoflurane and euthanized by decapitation. Hippocampus were dissected and placed in Ca^2+- and Mg^2+-free HEPES-buffered Hank's buffered salt solution (pH 7.45). Tissues were dissociated by papain digestion followed by trituration through a Pasteur pipette and papain inhibitor treatment. Cells were pelleted and resuspended in neurobasal medium containing 2% B27 serum-free supplement, 100 U/ml penicillin, 100 μg/ml streptomycin, 0.5 mM glutamine (all from Invitrogen), and 10 μM glutamate (Sigma).
(§8) Dissociated neurons were then plated at a density of 0.3×10^5 cells/cm^2 onto 12 mm round coverslips in 24-well plates (for patch-clamp recording) and/or at a density of 0.5×10^5 cells/cm^2 in 6-well plates (for Western blot and biotinylation assays) coated with poly-D-lysine (Sigma, 50 μg/ml). Cultures were kept at 37° C. in a 5% CO2 humidified incubator. Thereafter, one third to half of the medium was replaced twice a week with neurobasal culture medium containing 2% B27 supplement, and 0.5 mM glutamine.
(§9) Control neurons were treated with corresponding vehicle as same procedure as EtOH-treated neurons. The concentration of 60 mM EtOH was selected in view of prior experiments. See Liang J et al (2007). Specifically, the concentration of 60 mM EtOH used to treat cultured neurons was chosen to match blood levels measured in adult rats after intoxication with gavage of 5 g/kg, which produced about 60 mM blood peak plasma [EtOH] lasting for about 2 to 3 hr and induced significant plasticity in GABAARs and tolerance.
(§10) Then, immediately before electrophysiological recording, cells grown on coverslips were transferred to a perfusion chamber (Warner Instruments) and visualized with an inverted microscope (TE200, Nikon). Whole-cell patch-clamp recordings were obtained from cultured neurons under voltage-clamp mode at room temperature (22-25° C.), at a holding potential of −70 mV. Cells were perfused with an extracellular solution (137 mM NaCl, 5 mM KCl, 2 mM CaCl2, 1 mM MgCl2, 20 mM glucose and 10 mM HEPES (310-320 Osm, pH adjusted to 7.40 with NaOH)). Glass pipettes were filled with the same internal solution as that in slice recordings, with an input resistance of 4-7 MΩ. GABAAR-mediated mIPSCs were recorded using the same pharmacological method as mentioned above. […] Electrical signals were amplified using a Multiclamp 200 B amplifier (Molecular Devices, USA). After establishing the whole-cell configuration, at least 10 min were allowed to elapse before the application of drug to allow the membrane patch to stabilize and exchange of ions between the recording electrode and the cytosol to occur. Data were acquired with pClamp software (Version 10.0, Molecular Devices, USA), digitized at 20 kHz (Digidata 1440A, Molecular Devices), and analyzed using the Clampfit software (Version 10.0, Molecular Devices) and the Mini Analysis Program (versions 6.0.7, Synaptosoft, Decatur, Ga.) using methods known in the art. See Hamann M, et al. (2002) Neuron 33(4):625-633; Stell B M and Mody I (2002) J Neurosci 22(10): RC223; and Liang (2007).

[7] = tested on: T3, GABAARs; experiment: as above; format: cell-based, rat; conditions: DHM 1 μM + 10 μM flumazenil
Experimental: as §6, §7, §8, §9, §10

SMILES: O=c1c(-c2ccc(O)cc2)coc2cc(O[C@@H]3O[C@H](CO)[C@@H](O)[C@H](O)[C@H]3O)ccc12 [daidzin, reference compound]
binding to GABAARs in [3H]flunitrazepam binding assay [1]: bind GABAARs | effect on extrasynaptic GABAAR-mediated tonic current (Itonic) [2]: no effect | block of EtOH potentiation of GABAAR-mediated Itonic and mIPSCs [3]: do not | effect on post-synaptic currents (mIPSCs) [4]: significantly potentiated

SMILES: CCOC(=O)c1ncn2c1CN(C)C(=O)c1cc(F)ccc1-2 [flumazenil, reference compound]
LORR duration ([5]; flumazenil 10 mg/kg + DHM 3 mg/kg + EtOH): 56.1 ± 4.6 min | LORR duration ([5]; flumazenil 10 mg/kg + DHM 10 mg/kg + EtOH): 29.3 ± 4.8 min | LORR duration ([5]; flumazenil 10 mg/kg co-injected with EtOH, no DHM): 71.1 ± 4.8 min | LORR duration ([5]; flumazenil 30 mg/kg + DHM 3 mg/kg + EtOH): 58.2 ± 3.9 min | DHM-enhanced Itonic [6]: 143.0±3.2% | DHM-enhanced mIPSCs [7]: 125.7±3.9%

SMILES: O=c1c(O)c(-c2cc(O)c(O)c(O)c2)oc2cc(O)cc(O)c12 [myricetin]
binding to GABAARs in [3H]flunitrazepam binding assay [1]: do not bind

SMILES: O=c1c(O)c(-c2ccc(O)c(O)c2)oc2cc(O)cc(O)c12 [quercetin, reference compound]
binding to GABAARs in [3H]flunitrazepam binding assay [1]: do not bind | effect on extrasynaptic GABAAR-mediated tonic current (Itonic) [2]: no effect | block of EtOH potentiation of GABAAR-mediated Itonic and mIPSCs [3]: do not | effect on post-synaptic currents (mIPSCs) [4]: no effect

Results, then the molecule that gave them:

binding to GABAARs in [3H]flunitrazepam binding assay [1]: bind GABAARs
SMILES: O=c1c(-c2ccc(O)cc2)coc2cc(O)ccc12 [daidzein]

binding to GABAARs in [3H]flunitrazepam binding assay [1]: do not bind
SMILES: O=c1c(-c2ccc(O)cc2)coc2cc(O)cc(O)c12 [genistein]

binding to GABAARs in [3H]flunitrazepam binding assay [1]: do not bind
SMILES: O=c1c(-c2ccc(O)cc2)coc2c([C@@H]3O[C@H](CO)[C@@H](O)[C@H](O)[C@H]3O)c(O)ccc12 [puerarin]
